Measurements from patent US6479491B1, “Disubstituted morpholine, oxazepine or thiazepine derivatives, their preparation and their use as dopamine d4 receptor antagonists” (Neurosearch A/S, priority 1996, dated 2002).
Where a name gives a salt, the structure may show the parent alone.

Key:
[1] = target: T1, D4.2 Dopamine Receptors (Human Recombinant) (Homo sapiens, UniProt P21917, DEL265-296); assay: In vitro inhibition of 3H-spiperone binding to D4.2 dopamine receptors (human recombinant); conditions: for IC50: IC50 for inhibition of specific 3H-spiperone (0.5 nM) binding, membranes of CHO cells transfected with human recombinant D4.2 receptor
T1 construct: purchased RBI D-195; host or cells: Chinese Hamster Ovary (CHO) cells, transfected; supplied as frozen membranes
T1 sequence (P21917 with tags, fused parts or gaps DEL265-296): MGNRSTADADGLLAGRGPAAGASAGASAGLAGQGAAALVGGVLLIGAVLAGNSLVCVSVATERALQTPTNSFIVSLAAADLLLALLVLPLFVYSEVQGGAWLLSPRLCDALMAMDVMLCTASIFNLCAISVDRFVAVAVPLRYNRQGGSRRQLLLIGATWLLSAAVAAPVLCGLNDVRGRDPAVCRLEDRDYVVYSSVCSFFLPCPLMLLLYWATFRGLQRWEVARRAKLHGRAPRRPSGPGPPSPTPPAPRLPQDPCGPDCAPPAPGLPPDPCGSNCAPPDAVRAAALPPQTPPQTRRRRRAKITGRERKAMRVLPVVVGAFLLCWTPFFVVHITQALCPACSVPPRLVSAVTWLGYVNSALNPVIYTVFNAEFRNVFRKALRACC
Method: II) In Vitro Inhibition of ^3H-spiperone Binding to D4.2 Dopamine Receptors (Human Recombinant)
Membranes are suspended in 10 mM Tris-HCl (pH 7.2) containing 2 mM EDTA, and stored tightly sealed at −80° C.
Asssay: The membranes are thawed and diluted in incubation buffer (50 mM Tns-HCl, pH 7.4, containing 120 mM NaCl, 5 mM KCl, 5 mM MgCl2 and 1 mM EDTA) —0.25 ml of membranes to 4.75 ml of incubation buffer. Aliquots of 100 μl of diluted membranes are added to 100 μl of test solution and 50 μl of ^3H-spiperone (0.5nM, final concentration). Finally, 750 μl incubation buffer is added and the assay mixture is incubated for 60 min at 25° C. Non-specific binding is determined using haloperidol (1 μM, final concentration). After incubation the assay is terminated by rapid filtration over GF/C glass fibre filters (presoaked in 0.1% PEI for at least 20 min), then washed twice with 5 ml ice cold 50 mM Tris-HCl in 0.9% NaCl at pH 7.4. The amount of radioactivity on the filters is determined by conventional liquid scintillation counting. Specific binding is total binding minus non-specific binding.

D2 dopamine Receptors = target: T2, D2 dopamine Receptors (Rattus norvegicus, UniProt P61169); assay: In vitro inhibition of 3H-spiperone binding to D2 dopamine receptors; conditions: for IC50: IC50 for inhibition of specific 3H-spiperone (0.2 nM) binding, corpus striatum of male Wistar rats
T2 construct: Corpus Striatum from male Wistar rats (150-200 g) is homogenized; from tissue; host or cells: rat corpus striatum
T2 sequence (P61169 whole entry): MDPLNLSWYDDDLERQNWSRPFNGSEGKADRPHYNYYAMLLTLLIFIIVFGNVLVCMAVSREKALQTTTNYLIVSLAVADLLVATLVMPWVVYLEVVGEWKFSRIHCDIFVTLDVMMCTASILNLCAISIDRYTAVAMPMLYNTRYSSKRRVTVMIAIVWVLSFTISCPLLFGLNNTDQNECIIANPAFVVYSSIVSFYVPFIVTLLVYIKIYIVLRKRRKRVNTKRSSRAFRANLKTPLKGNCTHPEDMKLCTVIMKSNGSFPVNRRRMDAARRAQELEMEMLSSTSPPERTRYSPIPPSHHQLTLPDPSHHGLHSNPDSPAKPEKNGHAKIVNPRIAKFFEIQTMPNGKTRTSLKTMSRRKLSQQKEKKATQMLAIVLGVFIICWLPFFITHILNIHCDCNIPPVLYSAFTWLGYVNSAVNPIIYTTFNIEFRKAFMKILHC
Method: I) In vitro Inhibition of ^3H-spiperone Binding to D2 dopamine Receptors
Tissue preparation: Preparations are performed at 0-4° C. unless otherwise indicated. Corpus Striatum from male Wistar rats (150-200 g) is homogenized for 5-10 sec in 10 ml KH2PO4 (50 mM, pH 7.4) using an Ultra-Turrax homogenizer. The suspension is centrifuged at 27,000×g for 15 min. The supematant is discarded and the pellet is resuspended in 50 mM KH2PO4, pH 7.4 (2000 ml per g of original tissue) and used for binding assays.
Assay: Aliquots of 0.5 ml tissue are added to 25 μl of test solution and 25 μl of ^3H-spiperone (0.2 nM, final concentration), mixed and incubated for 20 min at 37° C. Non-specific binding is determined using butadamol (1 μM, final concentration). After incubation the samples are placed on ice for 10 min. The assay is terminated by addition of 5 ml of ice-cold buffer and poured directly onto Whatman GF/C glass fibre filters (presoaked in 0.1% PEI for at least 20 min) under suction and immediately washed with 5 ml ice-cold buffer. The amount of radioactivity on the filters is determined by conventional liquid scintillation counting. Specific binding is total binding minus non-specific binding.

Row | SMILES | melting point | IC50 [1] | IC50 (D2 dopamine Receptors) | affinity for dopamine D4 receptors (in words) ([1]; qualitative statement) | affinity for dopamine D2 receptors (in words) (D2 dopamine Receptors; qualitative statement)
1 | COc1ccc(N)cc1OCC1CN(Cc2ccc(Cl)cc2)CCO1.O=C(O)C(=O)O (racemic) | 80 to 110 °C |  |  |  | 
2 | COc1cc(Cl)ccc1OCC1CN(Cc2ccc(Cl)cc2)CCCO1 (racemic) [(±)-2-[(4-chloro-2-methoxyphenoxy)methyl]-4-(4-chlorobenzyl)perhydro oxazepine oxalic acid salt] |  | 2.5 nM | > 10000 nM |  | 
3 | CCOc1ccccc1OCC1CNCCO1 (stereo not shown) [Viloxazine, 2-[(2-ethoxy-phenoxy)methyl]morpholine, reference compound] |  |  |  | no or only low affinity | no or only low affinity
4 | COc1cc(Cl)ccc1OCC1CN(Cc2ccc(Cl)cc2)CCO1 (racemic) [(±)-4-(4-Chlorobenzyl)-2-[(4-chloro-2-methoxyphenoxy)methyl]morpholine oxalic acid salt] |  | 4 nM | > 10000 nM |  | 
